Values of other authors as cited in patent US9927424B2, “Assays for identifying compounds that modulate bitter taste” (Chromocell Corporation, priority 2013, dated 2018).

Assays:
Settings in all cases: PCT/US12/61400; cited from earlier work
TAS2R9 = target: T1, TAS2R9 (Homo sapiens, UniProt Q9NYW1)
T1 construct: expressed in transfected cells
T1 sequence (Q9NYW1 1-312): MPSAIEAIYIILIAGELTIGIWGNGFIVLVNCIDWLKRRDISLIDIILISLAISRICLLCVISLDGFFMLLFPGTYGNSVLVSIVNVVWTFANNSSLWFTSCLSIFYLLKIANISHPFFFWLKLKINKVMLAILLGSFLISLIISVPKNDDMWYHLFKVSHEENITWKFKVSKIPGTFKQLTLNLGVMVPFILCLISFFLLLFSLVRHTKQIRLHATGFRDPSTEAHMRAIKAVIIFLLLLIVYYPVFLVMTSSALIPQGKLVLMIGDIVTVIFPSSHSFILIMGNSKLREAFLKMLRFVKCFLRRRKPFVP

TAS2R60 = target: T2, TAS2R60 (Homo sapiens, UniProt P59551)
T2 construct: expressed in transfected cells
T2 sequence (P59551 1-318): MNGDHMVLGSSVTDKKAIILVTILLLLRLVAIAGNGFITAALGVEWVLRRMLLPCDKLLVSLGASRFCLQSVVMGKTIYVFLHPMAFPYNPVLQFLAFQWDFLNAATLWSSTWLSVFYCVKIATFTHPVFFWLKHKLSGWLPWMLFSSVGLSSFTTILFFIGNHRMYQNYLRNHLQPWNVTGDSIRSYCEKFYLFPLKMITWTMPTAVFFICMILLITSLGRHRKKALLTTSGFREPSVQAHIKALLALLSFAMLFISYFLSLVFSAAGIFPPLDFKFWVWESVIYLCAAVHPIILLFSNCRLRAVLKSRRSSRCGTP

TAS2R44 = target: T3, TAS2R44 (Homo sapiens, UniProt P59538)
T3 construct: expressed in transfected cells
T3 sequence (P59538 1-309): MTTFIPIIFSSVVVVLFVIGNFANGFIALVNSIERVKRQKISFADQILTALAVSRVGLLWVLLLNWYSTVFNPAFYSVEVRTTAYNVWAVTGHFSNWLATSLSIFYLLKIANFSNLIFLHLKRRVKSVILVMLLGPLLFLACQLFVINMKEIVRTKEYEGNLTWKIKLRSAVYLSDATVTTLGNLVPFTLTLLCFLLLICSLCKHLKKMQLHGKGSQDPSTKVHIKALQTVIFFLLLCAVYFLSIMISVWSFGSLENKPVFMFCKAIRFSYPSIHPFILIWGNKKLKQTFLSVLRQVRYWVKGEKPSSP

TAS2R4 = target: T4, TAS2R4 (Homo sapiens, UniProt Q9NYW5)
T4 construct: expressed in transfected cells
T4 sequence (Q9NYW5 1-299): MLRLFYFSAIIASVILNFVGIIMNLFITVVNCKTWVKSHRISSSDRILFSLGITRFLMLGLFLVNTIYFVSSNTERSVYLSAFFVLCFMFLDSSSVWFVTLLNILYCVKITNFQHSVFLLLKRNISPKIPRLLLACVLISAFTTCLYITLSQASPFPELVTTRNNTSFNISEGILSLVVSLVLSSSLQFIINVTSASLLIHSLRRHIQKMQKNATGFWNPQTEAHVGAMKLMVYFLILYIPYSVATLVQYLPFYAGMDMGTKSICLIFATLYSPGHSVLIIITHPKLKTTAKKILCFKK

TAS2R14 = target: T5, TAS2R14 (Homo sapiens, UniProt Q9NYV8)
T5 construct: expressed in transfected cells
T5 sequence (Q9NYV8 1-317): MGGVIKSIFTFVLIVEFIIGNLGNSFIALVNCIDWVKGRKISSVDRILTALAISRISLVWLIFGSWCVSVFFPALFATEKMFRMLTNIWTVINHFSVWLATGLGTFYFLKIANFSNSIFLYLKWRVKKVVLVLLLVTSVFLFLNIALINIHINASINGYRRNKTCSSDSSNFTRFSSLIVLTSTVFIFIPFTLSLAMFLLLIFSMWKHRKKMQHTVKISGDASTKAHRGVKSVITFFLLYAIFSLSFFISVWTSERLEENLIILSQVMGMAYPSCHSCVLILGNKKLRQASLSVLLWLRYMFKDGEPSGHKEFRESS

[Cl-].[K+] [KCl]
specifically respond: TAS2R9 response to stimulation, previously shown (TAS2R9) | TAS2R60 response to stimulation, previously shown (TAS2R60) | TAS2R44 response to stimulation, previously shown (TAS2R44) | TAS2R4 response to stimulation, previously shown (TAS2R4) | TAS2R14 response to stimulation, previously shown (TAS2R14)
